Test results published in patent US20070135399A1, “Heteroaromatic sulphonamide prodrugs” (priority 2005, published 2007).
Like-named read-outs stand apart in the source and are kept apart here.

Tests used:
[1] = molecular target: human carboanhydrase II (Homo sapiens, UniProt P00918); test: Carboanhydrase inhibition, photometric, nitrophenyl acetate conversion (CA II); type: biochemical
Description: (§1) a) Carboanhydrase Inhibition
(§2) Photometric determination of the inhibition of human carboanhydrase I or II by sulphonamides or sulphamates on microtitre plates with the aid of the enzymatic conversion of nitrophenyl acetate with a colour change from colourless to yellow.

[2] = molecular target: human carboanhydrase I (Homo sapiens, UniProt P00915); test: Carboanhydrase inhibition, photometric, nitrophenyl acetate conversion (CA I); type: biochemical
Description: as §1, §2

[3] = Blood-plasma concentration ratio in heparinized rat blood
Description: b) Blood-plasma concentration ratio—test principle and experimental description:
The blood-plasma ratio is calculated from the measured concentration and the theoretical concentration.

[4] = human carboanhydrase II, read-out: CA II IC50
[5] = human carboanhydrase I, read-out: CA I IC50
[6] = freshly obtained heparinized whole blood

Sequence of human carboanhydrase I (P00915 whole entry): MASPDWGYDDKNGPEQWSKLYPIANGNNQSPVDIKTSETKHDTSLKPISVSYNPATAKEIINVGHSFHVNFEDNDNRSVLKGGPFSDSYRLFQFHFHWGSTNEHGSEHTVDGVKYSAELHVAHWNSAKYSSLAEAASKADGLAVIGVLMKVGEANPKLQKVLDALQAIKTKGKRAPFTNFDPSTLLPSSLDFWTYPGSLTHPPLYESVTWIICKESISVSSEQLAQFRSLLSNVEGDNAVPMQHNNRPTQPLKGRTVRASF

## C[C@]12CC[C@@H]3c4ccc(OS(N)(=O)=O)cc4CC[C@H]3[C@@H]1CC[C@@H]2O [Oestradiol 3-sulphamate, reference compound]
[1]; [4]
  IC50: 34 nM
[2]; [5]
  IC50: 157 ± 10.6 nM
other
  Blood/plasma ratio: About 50

## CCc1sc(S(N)(=O)=O)cc1C(=O)O[C@H]1CC[C@H]2[C@@H]3CCc4cc(O)ccc4[C@H]3CC[C@]12C [Compound 3, 3-Hydroxyoestra-1,3,5(10)-trien-17β-yl 2′-ethyl-5′-sulphamoylthiophene-3′-carboxylate]
[1]; [4]
  IC50: 42 nM
[2]; [5]
  IC50: 3400 nM
[3]; [6]
  blood plasma ratio: 1.8

## C[C@]12CC[C@H]3[C@@H](CCC4=CC(=O)CC[C@@]43C)[C@@H]1CC[C@@H]2OC(=O)c1cncc(S(N)(=O)=O)c1 [Compound 6, 3-Oxoandrost-4-en-17β-yl 5′-sulphamoylnicotinate]
[1]
  IC50: 250 nM
[2]
  IC50: 2900 nM
[3]
  blood plasma ratio: 5.7

## C[C@]12CC[C@H]3[C@@H](CCC4=CC(=O)CC[C@@]43C)[C@@H]1CC[C@@H]2OC(=O)c1ccc(S(N)(=O)=O)nc1 [Compound 5, 3-Oxoandrost-4-en-17β-yl 6′-sulphamoylnicotinate]
[1]
  IC50: 41 nM
[2]
  IC50: 3200 nM
[3]
  blood plasma ratio: 3.6

## C[C@]12CC[C@@H]3c4ccc(O)cc4CC[C@H]3[C@@H]1CC[C@@H]2OC(=O)c1cncc(S(N)(=O)=O)c1 [Compound 2, 3-Hydroxyoestra-1,3,5(10)-trien-17β-yl 5′-sulphamoylnicotinate]
[1]; [4]
  IC50: 160 nM
[2]; [5]
  IC50: 2100 nM
[3]; [6]
  blood plasma ratio: 2

## C[C@]12CC[C@@H]3c4ccc(O)cc4CC[C@H]3[C@@H]1CC[C@@H]2OC(=O)c1cc(S(N)(=O)=O)sc1Br [Compound 4, 3-Hydroxyoestra-1,3,5(10)-trien-17β-yl 2′-bromo-5′-sulphamoylthiophene-3′-carboxylate]
[1]; [4]
  IC50: 47 nM
[2]; [5]
  IC50: 3300 nM
[3]; [6]
  blood plasma ratio: 9.5

## C[C@]12CC[C@@H]3c4ccc(O)cc4CC[C@H]3[C@@H]1CC[C@@H]2OC(=O)c1ccc(S(N)(=O)=O)nc1 [Compound 1, 3-Hydroxyoestra-1,3,5(10)-trien-17β-yl 6′-sulphamoylnicotinate]
[1]; [4]
  IC50: 31 nM
[2]; [5]
  IC50: 2900 nM
